Patent US10376598B2, “Targeted therapeutics” (Madrigal Pharmaceuticals, Inc., priority 2013, dated 2019)
Where two headings read alike, the source gives them in different places.

Key:
[1] = system: Ba/F3-JAK2V617F-GFP tumor burden; settings: cited from earlier work
wild-type JAK2 [2] = biological target: T1, wild-type JAK2 (Homo sapiens, UniProt O60674); settings: read-out: IC50 interleukin-3-stimulated wild-type JAK2-mediated cell proliferation; cited from earlier work
JAK2V617F = biological target: T2, JAK2V617F (Homo sapiens, UniProt O60674, V617F); settings: Ba/F3 cells; read-out: IC50 JAK2V617F-driven signaling; cited from earlier work
T2 construct: host or cells: Ba/F3
T2 sequence (O60674 whole entry V617F): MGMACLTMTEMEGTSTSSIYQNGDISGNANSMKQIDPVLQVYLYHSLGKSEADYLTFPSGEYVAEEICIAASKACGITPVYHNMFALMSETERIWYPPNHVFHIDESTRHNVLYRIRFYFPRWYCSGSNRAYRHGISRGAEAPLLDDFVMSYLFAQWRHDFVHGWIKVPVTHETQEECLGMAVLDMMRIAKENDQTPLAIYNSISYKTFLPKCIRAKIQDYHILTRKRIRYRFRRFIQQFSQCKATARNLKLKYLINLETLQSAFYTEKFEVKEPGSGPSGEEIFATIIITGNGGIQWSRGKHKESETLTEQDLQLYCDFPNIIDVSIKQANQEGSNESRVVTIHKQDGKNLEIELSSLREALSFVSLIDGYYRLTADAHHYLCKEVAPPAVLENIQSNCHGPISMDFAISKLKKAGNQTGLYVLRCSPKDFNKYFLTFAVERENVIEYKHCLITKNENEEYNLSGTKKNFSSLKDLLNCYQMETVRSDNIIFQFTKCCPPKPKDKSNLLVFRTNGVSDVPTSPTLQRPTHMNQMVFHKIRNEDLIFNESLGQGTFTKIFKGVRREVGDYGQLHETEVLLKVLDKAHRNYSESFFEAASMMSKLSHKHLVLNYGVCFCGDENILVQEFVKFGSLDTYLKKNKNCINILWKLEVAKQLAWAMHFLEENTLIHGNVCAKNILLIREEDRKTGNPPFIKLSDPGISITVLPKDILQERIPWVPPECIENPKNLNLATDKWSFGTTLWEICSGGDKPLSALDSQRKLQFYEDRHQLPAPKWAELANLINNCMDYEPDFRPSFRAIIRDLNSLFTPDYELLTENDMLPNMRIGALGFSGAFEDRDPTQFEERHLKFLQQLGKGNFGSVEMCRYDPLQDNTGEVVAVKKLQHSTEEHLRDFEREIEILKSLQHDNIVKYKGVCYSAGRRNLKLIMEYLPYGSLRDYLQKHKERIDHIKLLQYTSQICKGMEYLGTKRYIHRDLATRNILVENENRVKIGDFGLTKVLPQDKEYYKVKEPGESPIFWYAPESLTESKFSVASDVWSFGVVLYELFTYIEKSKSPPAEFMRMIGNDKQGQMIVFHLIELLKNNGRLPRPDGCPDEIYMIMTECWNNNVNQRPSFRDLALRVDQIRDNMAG

wild-type JAK2 [3] = biological target: T1, wild-type JAK2; settings: read-out: IC50 interleukin-3-stimulated wild-type JAK2-mediated signaling; cited from earlier work
[4] = system: Ba/F3-JAK2V617F-GFP ascitic tumor cells; settings: cited from earlier work
HER2 [5] = test: HER2 degradation in BT-474 cells (Method 1, Western blot); type: cell-based, human; settings: 0.5 μM, overnight
Experimental: […]. The resulting supernatant used as the cytosol fractions is dissolved with sample buffer for SDS-PAGE and run on a SDS-PAGE gel, blotted onto a nitrocellulose membrane by using semi-dry transfer. Non-specific binding to nitrocellulose is blocked with 5% skim milk in TBS with 0.5% Tween at room temperature for 1 hour, then probed with anti-HER2/ErB2 mAb (rabbit IgG, #2242, Cell Signaling) and anti-Tubulin (T9026, Sigma) as housekeeping control protein. HRP-conjugated goat anti-rabbit IgG (H+L) and HRP-conjugated horse anti-mouse IgG (H+L) are used as secondary Ab (#7074, #7076, Cell Signaling) and LumiGLO reagent, 20× Peroxide (#7003, Cell Signaling) is used for visualization. The Hsp90 client protein HER2 is degraded when cells are treated with Hsp90-targeting moieties or SDC-TRAPs of the invention.

[6] = system: FGF-over VEGF-mediated target signaling; settings: in mice; cited from earlier work
[7] = system: phosphorylation of MK2 (Thr334); settings: anisomycin-induced mouse RAW264.7 macrophages; cited from earlier work
β isoform of p38 MAPK = β isoform of p38 MAPK (Homo sapiens, UniProt Q15759); settings: in vitro; cited from earlier work
β isoform of p38 MAPK, sequence (Q15759 whole entry, canonical isoform): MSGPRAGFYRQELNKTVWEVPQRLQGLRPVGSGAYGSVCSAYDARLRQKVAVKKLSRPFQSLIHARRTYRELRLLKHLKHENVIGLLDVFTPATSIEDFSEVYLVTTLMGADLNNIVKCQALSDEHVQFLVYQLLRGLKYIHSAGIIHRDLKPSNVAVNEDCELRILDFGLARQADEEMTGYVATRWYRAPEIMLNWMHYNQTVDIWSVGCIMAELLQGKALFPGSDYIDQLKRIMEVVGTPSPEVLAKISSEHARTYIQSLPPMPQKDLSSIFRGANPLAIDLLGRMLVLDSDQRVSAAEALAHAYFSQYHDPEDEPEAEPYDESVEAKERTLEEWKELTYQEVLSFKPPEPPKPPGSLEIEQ

TNFα secretion = settings: LPS/IFNγ-stimulated macrophages; cited from earlier work
[8] = system: phosphorylation of MK2 (Thr334); settings: TNFα-stimulated HeLa cells; cited from earlier work
p38α MAPK = p38α MAPK (Homo sapiens, UniProt Q16539); settings: cited from earlier work
p38α MAPK, sequence (Q16539 whole entry): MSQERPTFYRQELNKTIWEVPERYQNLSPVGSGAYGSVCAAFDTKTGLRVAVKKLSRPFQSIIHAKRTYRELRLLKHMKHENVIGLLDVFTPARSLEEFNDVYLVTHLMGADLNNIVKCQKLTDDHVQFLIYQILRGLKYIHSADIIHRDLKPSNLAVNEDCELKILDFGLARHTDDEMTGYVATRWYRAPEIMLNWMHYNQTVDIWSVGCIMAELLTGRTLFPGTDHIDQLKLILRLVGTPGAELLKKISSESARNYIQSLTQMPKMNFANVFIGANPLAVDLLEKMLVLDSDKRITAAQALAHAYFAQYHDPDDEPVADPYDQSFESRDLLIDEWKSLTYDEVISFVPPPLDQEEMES

phospho-MK2 = settings: cited from earlier work
HER2 [9] = test: in vitro HER2 assays; type: cell-based
From the text: This example illustrates how a HER2 degradation assay may be used as a test to determine and select Hsp90-targeting moieties suitable for use in SDC-TRAPs of the invention, and further illustrates the ability of SDC-TRAPs to target cells preferentially expressing Hsp90. Such a test may further be used to determine the Hsp90 binding ability of SDC-TRAPs of the invention, as well as through competitive binding assays and cell-based Hsp90 client protein degradation assays known in the art.
BT-474 cells are plated in the interior 60 wells of a 96 well black clear bottom plate (20,000 cells/well) in DMEM medium, with DMEM media in the surrounding 36 wells, and incubated at 37° C. with 5% CO2 overnight. On the second day, concentration response curve source plates are produced (10 point, 3-fold dilution of compounds in DMSO) followed by a 1:30 dilution in an intermediate dilution plate containing DMEM. Compound is transferred from the intermediate plate to the cell plate at a dilution of 1:10. The cells are then incubated at 37° C. with 5% CO2 for 24 hours.
Cells are then fixed in 4% phosphate-buffered paraformaldehyde for 30 minutes at room temperature and then permeabilized by washing five times with 0.1% Triton X-100 in PBS for 5 minutes at room temperature on a shaker. […] The raw data is normalized to DRAQS and the HER2 EC50 is calculated using XLfit™. […]

[10] = Tissue distribution of ganetespib in female CD-1 nu/nu mice bearing RERF human NSCLC xenografts; type: in vivo
From the text: Tissue Distribution of Ganetespib in Female CD-1 Nu/Nu Mice Bearing RERF Human NSCLC Xenografts
To confirm the distribution of ganetespib in blood, livers, kidneys, brains, hearts, lungs and tumors after IV administration of ganetespib to female CD-1 nu/nu mice bearing RERF human NSCLC xenografts, and to examine metabolic profiles of ganetespib in plasma, red blood cells, and above tissues.
Animals: female CD-1 nu/nu mice bearing RERF human NSCLC xenografts (N=3/group)
Formulation: 10% DMSO, 18% Cremophor RH40, 3.6% dextrose solution (DRD)
Bleeding time points: 5 min, 6, 24 hr
Collected tissues: blood (plasma and red blood cells (RBC)), liver, kidneys, brain, heart, lung, tumor
Protein precipitation: 50 μL of 10 times diluted plasma or RBC+150 μL ACN (10 mM NH4OAc), vortexed and centrifuged at 10000 rpm for 8 min; 150 μL supernatant+150 μL water (10 mM NH4OAc)
Protein precipitation: 100 μL homogenized tissue (1:3 tissue: PBS buffer)+100 μL ACN (10 mM NH4OAc), vortexed and centrifuged at 10000 rpm for 8 min
Column: Agilent Zorbax Eclipse XDB-C18, 4.6×150 mm, 5 μm
Mobile phase: A: water containing 10 mM NH4OAc; B: 95% ACN containing 10 mM NH4OAc
Gradient: 95/5 A/B to 5/95 A/B in 10 min, total run time 15 min
Column: Phenomenex Synergi, 2.1×50 mm, 4 μm
Mobile phase: A: water containing 0.1% HCOOH; B: ACN containing 0.1% HCOOH
Gradient: 60/40 A/B to 5/95 A/B in 0.5 min, total run time 4 min

[11] = in vivo; cited from earlier work
SW1990 = settings: read-out: IC50 cell proliferation; cited from earlier work
[12] = system: SW1990 human pancreas orthotopic tumor; settings: in vivo; cited from earlier work

T1 sequence (O60674 whole entry, species assumed): as the sequence (O60674 whole entry V617F) above, with F617V counted along it

Cc1cc(Nc2cc(CN3CCOCC3)c3nc(C)c(Cc4ccc(Cl)cc4F)n3n2)n[nH]1 [LY2784544, 3-(4-Chloro-2-fluorobenzyl)-2-methyl-N-(5-methyl-1H-pyrazol-3-yl)-8-(morpholin-4-ylmethyl)imidazo[1,2-b]pyridazin-6-amine]
effect on erythroid progenitors, reticulocytes or platelets ([1]; in vivo): no effect
TED50 reduction of Ba/F3-JAK2V617F-GFP tumor burden ([1]; twice daily): 13.7 mg/kg
IC50 (wild-type JAK2 [2]): 1310 nM
IC50 (JAK2V617F): 20 nM
IC50 (wild-type JAK2 [3]): 1180 nM
TED50 inhibition of STATS phosphorylation [4]: 12.7 mg/kg

C=CCNC1=C2C[C@@H](C)C[C@H](OC)[C@H](O)[C@@H](C)/C=C(\C)[C@H](OC(N)=O)[C@@H](OC)/C=C\C=C(/C)C(=O)NC(=CC1=O)C2=O [17-AAG]
degradation of HER2 (HER2 [5]): partial degradation of HER2

C[C@@H](Oc1ccc2[nH]nc(/C=C/c3cnn(CCO)c3)c2c1)c1c(Cl)cncc1Cl [LY2874455, (R)-(E)-2-(4-(2-(5-(1-(3,5-Dichloropyridin-4-yl)ethoxy)-1H-indazol-3-yl)vinyl)-1H-pyrazol-1-yl) ethanol]
in vitro and in vivo selectivity on inhibition of FGF-over VEGF-mediated target signaling [6]: 6- to 9 fold

CC(C)(C)Cn1c(N)nc2ccc(-c3[nH]c(C(C)(C)C)nc3-c3ccc(F)cc3)nc21 [LY2228820, 5-[2-tert-Butyl-4-(4-fluorophenyl)-1H-imidazol-5-yl]-3-(2,2-dimethylpropyl)-3H-imidazo[4,5-b]pyridin-2-amine dimethanesulfonate]
IC50 [7]: 35.3 nM
IC50 (β isoform of p38 MAPK): 3.2 nM
IC50 (TNFα secretion): 6.3 nM
IC50 [8]: 8.1 nM
IC50 (p38α MAPK; in vitro, read-out: IC50 α isoform of p38 MAPK): 5.3 nM
selectivity for p38α MAPK versus 179 other kinases tested (p38α MAPK; including p38δ and γ isoforms): > 1000 fold
TMED70 phospho-MK2 inhibition in tumors (phospho-MK2; mice transplanted with B16-F10 melanomas): 19.4 mg/kg
duration of significant target inhibition (phospho-MK2; single 10 mg/kg oral dose): 4 to 8 h
inhibition of phospho-MK2 (phospho-MK2; single 10 mg/kg oral dose): > 40%

CC(C)c1cc(-c2nnc(O)n2-c2ccc3c(ccn3C)c2)c(O)cc1O [ganetespib]
IC50 (HER2 [9]): ~30 nM
concentration of ganetespib in tumor ([10]; 5 min after 50 mg/kg IV): 2350 nM
mean concentration in plasma relative to RBC ([10]; 5 min time point): about 10 times
Concentration of ganetespib in plasma ([10]; 24 hr after 50 mg/kg IV): >LLOQ

CCN1CCN(Cc2ccc(Nc3ncc(F)c(-c4cc(F)c5nc(C)n(C(C)C)c5c4)n3)nc2)CC1.CS(=O)(=O)O [LY2835219, 2-Pyrimidinamine, N-[5-[(4-ethyl-1-piperazinyl)methyl]-2-pyridinyl]-5-fluoro-4-[4-fluoro-2-methyl-1-(1-methylethyl)-1H-benzimidazol-6-yl]-, methanesulfonate (1:1)]
percent of dose in brain [11]: 0.5-3.9%

COc1cccc(OCCCN)c1-c1cc(Nc2cnc(C#N)cn2)n[nH]1 [LY2606368, 5-((5-(2-(3-aminopropoxy)-6-methoxyphenyl)-1H-pyrazol-3-yl)amino)pyrazine-2-carbonitrile]
IC50 (SW1990): 1.5 nM
inhibition of metastasis to lymph node, spleen, and intestine [12]: 100%
inhibition of primary tumor growth [12]: over 92%
